Starred links: 1 amine or outer side, 2 acyl side, 3 side chain; linkers in the order of their positions; H or OH if unused. Non-standard residues stand in square brackets, D forms with d. Residues, ends and D or L forms follow the SMILES beside them. ξ: configuration not given here. *: point of attachment. ξBip(2'-Et-4'-OMe) = CCc1cc(OC)ccc1-c1ccc(CC(N)C(=O)O)cc1; X12 = COc1ccc(CCCC(N[*:1])C(=O)[*:2])c(Cl)c1; ξαMePhe(2-F) = CC(N)(Cc1ccccc1F)C(=O)O; X2 = O=C(C(CCCc1ccccc1Cl)N[*:1])[*:2]; ξhhPhe = NC(CCCc1ccccc1)C(=O)O; Aib = CC(C)(N)C(=O)O; Moc = COC(=O)*
What was measured:
[1] = tested on: C57BL/6J mice (mild hyperglycemic); test: In vivo glucose reduction, acute single dose 120-min time-course, i.p. route; set-up: species or system mouse; unit not given here; conditions: male C57BL/6J mice
Method: All the animal experiments were carried out according to the internationally valid guidelines following approval by the ‘Zydus Research Center animal ethical committee’.
Two days prior to the study, the animals were randomised and divided into 5 groups (n=6), based upon their fed glucose levels. On the day of experiment, food was withdrawn from all the cages, water was given ad-libitum and were kept for overnight fasting. Vehicle (normal saline)/test/standard compounds were administered intraperitoneally (i.p.) or orally, on a body weight basis.
(§1) Blood samples were centrifuged and the separated serum was immediately subjected for the glucose estimation. Serum for insulin estimation was stored at −70° C. until used for the insulin estimation. The glucose estimation was carried out with DPEC-GOD/POD method (Ranbaxy Fine Chemicals Limited, Diagnostic division, India), using Spectramax-190, in 96-microwell plate reader (Molecular devices Corporation, Sunnyvale, Calif.). […] The AUC and BCAUC obtained from graphs were analyzed for one way ANOVA, followed by Dunnett's post test, using Graph Pad prism software. Furthermore, the insulin estimation was carried out using rat/mouse insulin ELISA kit (Linco research, Missouri USA).

[2] = tested on: C57BL/6J mice (mild hyperglycemic); test: In vivo glucose reduction, acute single dose 120-min time-course, oral route; set-up: species or system mouse; unit not given here; conditions: male C57BL/6J mice, 2 μM/kg oral
Method: Acute single dose 120-min time-course experiments were carried out in male C57BL/6J or db/db mice, age 8-12 weeks, bred in-house. Animals were housed in groups of 6 animals per cage, for a week, in order to habituate them to vivarium conditions (25±4° C., 60-65% relative humidity, 12:12 h light:dark cycle, with lights on at 7.30 am). All the animal experiments were carried out according to the internationally valid guidelines following approval by the ‘Zydus Research Center animal ethical committee’.
Two days prior to the study, the animals were randomised and divided into 5 groups (n=6), based upon their fed glucose levels. On the day of experiment, food was withdrawn from all the cages, water was given ad-libitum and were kept for overnight fasting. Vehicle (normal saline)/test/standard compounds were administered intraperitoneally (i.p.) or orally, on a body weight basis. Soon after the 0 min. blood collection from each animal, the subsequent blood collections were done at 30, 60 and 120 or up to 240 min., via retro-orbital route, under light ether anesthesia (Chen, D., et al., Diabetes Obesity Metabolism, 2005, 7, 307. Kim, J. G. et al., Diabetes, 2003, 52, 751).
as §1, with “USA). Changes in the blood glucose levels, at 0, 30, 60 and 120 min, with selected peptidomimetics are shown in Table 7 (via ip route of administration) and Table 8 (via oral route of administration) respectively.” for “USA).”

CCc1cc(OC)ccc1-c1ccc(CC(NC(=O)[C@H](CC(=O)O)NC(=O)[C@H](CO)NC(=O)[C@@H](NC(=O)[C@H](Cc2ccccc2)NC(=O)[C@@H](NC(=O)CNC(=O)C(CCC#N)NC(=O)C(C)(C)NC(=O)[C@@H](N)Cc2c[nH]cn2)[C@@H](C)O)[C@@H](C)O)C(=O)NC(CCCc2ccccc2)C(N)=O)cc1 (single isomer, unassigned) [Seq. ID. 29]
blood glucose levels ([1]; 30 nM/kg i.p., 0 min): 180 ± 1.2
blood glucose levels ([1]; 30 nM/kg i.p., 30 min): 116 ± 3.2
blood glucose levels ([1]; 30 nM/kg i.p., 60 min): 116 ± 3.1
blood glucose levels ([1]; 30 nM/kg i.p., 120 min): 118 ± 1.8
blood glucose levels ([2]; 0 min): 184 ± 2.5
blood glucose levels ([2]; 30 min): 118 ± 3.6
blood glucose levels ([2]; 60 min): 113 ± 4.2
blood glucose levels ([2]; 120 min): 110 ± 2.4

CCc1cc(OC)ccc1-c1ccc(CC(NC(=O)[C@H](CC(=O)O)NC(=O)[C@H](CO)NC(=O)[C@@H](NC(=O)[C@H](Cc2ccccc2)NC(=O)[C@@H](NC(=O)CNC(=O)C(CCC#N)NC(=O)C(C)(C)NC(=O)[C@@H](N)Cc2c[nH]cn2)[C@@H](C)O)[C@@H](C)O)C(=O)NC(CCCc2cc(C)cc(C)c2)C(N)=O)cc1 (single isomer, unassigned) [Seq. ID. 30]
blood glucose levels ([1]; 30 nM/kg i.p., 0 min): 183 ± 3.6
blood glucose levels ([1]; 30 nM/kg i.p., 30 min): 117 ± 3.3
blood glucose levels ([1]; 30 nM/kg i.p., 60 min): 116 ± 3.2
blood glucose levels ([1]; 30 nM/kg i.p., 120 min): 117 ± 1.4
blood glucose levels ([2]; 0 min): 183 ± 2.4
blood glucose levels ([2]; 30 min): 119 ± 3.1
blood glucose levels ([2]; 60 min): 112 ± 4.8
blood glucose levels ([2]; 120 min): 110 ± 2.5

CCc1cc(OC)ccc1-c1ccc(CC(NC(=O)[C@H](CC(=O)O)NC(=O)[C@H](CO)NC(=O)[C@@H](NC(=O)[C@H](Cc2ccccc2)NC(=O)[C@@H](NC(=O)CNC(=O)C(CCC#N)NC(=O)C(C)(C)NC(=O)[C@@H](N)Cc2c[nH]cn2)[C@@H](C)O)[C@@H](C)O)C(=O)NC(CCCc2ccc(Cl)cc2C)C(N)=O)cc1 (single isomer, unassigned) [Seq. ID. 32]
blood glucose levels ([1]; 20 nM/kg i.p., 0 min): 182 ± 3.3
blood glucose levels ([1]; 20 nM/kg i.p., 30 min): 120 ± 3.6
blood glucose levels ([1]; 20 nM/kg i.p., 60 min): 127 ± 3.4
blood glucose levels ([1]; 20 nM/kg i.p., 120 min): 145 ± 2.1
blood glucose levels ([2]; 0 min): 181 ± 2.5
blood glucose levels ([2]; 30 min): 117 ± 3.3
blood glucose levels ([2]; 60 min): 112 ± 4.0
blood glucose levels ([2]; 120 min): 108 ± 2.9

CCc1cc(OC)ccc1-c1ccc(CC(NC(=O)[C@H](CC(=O)O)NC(=O)[C@H](CO)NC(=O)[C@@H](NC(=O)[C@H](Cc2ccccc2)NC(=O)[C@@H](NC(=O)CNC(=O)C(CCC#N)NC(=O)C(C)(C)NC(=O)[C@@H](N)Cc2c[nH]cn2)[C@@H](C)O)[C@@H](C)O)C(=O)NC(CCCc2ccccc2F)C(N)=O)cc1 (single isomer, unassigned) [Seq. ID. 77]
blood glucose levels ([1]; 20 nM/kg i.p., 0 min): 183 ± 4.9
blood glucose levels ([1]; 20 nM/kg i.p., 30 min): 120 ± 2.8
blood glucose levels ([1]; 20 nM/kg i.p., 60 min): 129 ± 3.0
blood glucose levels ([1]; 20 nM/kg i.p., 120 min): 139 ± 2.0
blood glucose levels ([2]; 0 min): 183 ± 2.1
blood glucose levels ([2]; 30 min): 118 ± 3.4
blood glucose levels ([2]; 60 min): 113 ± 4.6
blood glucose levels ([2]; 120 min): 111 ± 2.8

CCc1cc(OC)ccc1-c1ccc(CC(CNC(CCCc2ccccc2F)C(N)=O)NC[C@H](CC(=O)O)NC(=O)[C@H](CO)NC(=O)[C@@H](NC(=O)C(C)(Cc2ccccc2F)NC(=O)[C@@H](NC(=O)CNC(=O)[C@H](CCC(N)=O)NC(=O)C(C)(C)NC(=O)[C@H](Cc2c[nH]cn2)NC(C)=O)[C@@H](C)O)[C@@H](C)O)cc1 (single isomer, unassigned) [Seq. ID. 195]
blood glucose levels ([1]; 10 nM/kg i.p., 0 min): 182 ± 2.3
blood glucose levels ([1]; 10 nM/kg i.p., 30 min): 110 ± 2.3
blood glucose levels ([1]; 10 nM/kg i.p., 60 min): 112 ± 3.0
blood glucose levels ([1]; 10 nM/kg i.p., 120 min): 112 ± 1.9

CCc1cc(OC)ccc1-c1ccc(CC(CNC(CCCc2ccccc2F)C(N)=O)NC[C@H](CC(=O)O)NC(=O)[C@H](CO)NC(=O)[C@@H](NC(=O)C(C)(Cc2ccccc2F)NC(=O)[C@@H](NC(=O)CNC(=O)[C@H](CCC(N)=O)NC(=O)C(C)(C)NC(=O)[C@H](Cc2c[nH]cn2)NC(=O)OC)[C@@H](C)O)[C@@H](C)O)cc1 (single isomer, unassigned) [Seq. ID. 196]
blood glucose levels ([1]; 50 nM/kg i.p., 0 min): 181 ± 2.5
blood glucose levels ([1]; 50 nM/kg i.p., 30 min): 111 ± 3.4
blood glucose levels ([1]; 50 nM/kg i.p., 60 min): 113 ± 3.1
blood glucose levels ([1]; 50 nM/kg i.p., 120 min): 110 ± 1.8

CCc1cc(OC)ccc1-c1ccc(CC(CNC(CCCc2ccccc2)C(N)=O)NC[C@H](CC(=O)O)NC(=O)[C@H](CO)NC(=O)[C@@H](NC(=O)C(C)(Cc2ccccc2F)NC(=O)[C@@H](NC(=O)CNC(=O)[C@H](CCC(N)=O)NC(=O)C(C)(C)NC(=O)[C@H](Cc2c[nH]cn2)NC(C)=O)[C@H](C)O)[C@H](C)O)cc1 (single isomer, unassigned) [Seq. ID. 197]
blood glucose levels ([1]; 50 nM/kg i.p., 0 min): 180 ± 4.2
blood glucose levels ([1]; 50 nM/kg i.p., 30 min): 113 ± 3.2
blood glucose levels ([1]; 50 nM/kg i.p., 60 min): 112 ± 2.4
blood glucose levels ([1]; 50 nM/kg i.p., 120 min): 110 ± 1.9

CCc1cc(OC)ccc1-c1ccc(CC(CNC(CCCc2ccccc2)C(N)=O)NC[C@H](CC(=O)O)NC(=O)[C@H](CO)NC(=O)[C@@H](NC(=O)C(C)(Cc2ccccc2F)NC(=O)[C@@H](NC(=O)CNC(=O)[C@H](CCC(N)=O)NC(=O)C(C)(C)NC(=O)[C@H](Cc2c[nH]cn2)NC(=O)OC)[C@H](C)O)[C@H](C)O)cc1 (single isomer, unassigned) [Seq. ID. 198]
blood glucose levels ([1]; 50 nM/kg i.p., 0 min): 182 ± 4.1
blood glucose levels ([1]; 50 nM/kg i.p., 30 min): 112 ± 3.1
blood glucose levels ([1]; 50 nM/kg i.p., 60 min): 113 ± 2.6
blood glucose levels ([1]; 50 nM/kg i.p., 120 min): 111 ± 1.8

CCc1cc(OC)ccc1-c1ccc(CC(NC(=O)[C@H](CC(=O)O)NC(=O)[C@H](CO)NC(=O)[C@@H](NC(=O)C(C)(Cc2ccccc2F)NC(=O)[C@@H](NC(=O)CNC(=O)[C@H](CCC(N)=O)NC(=O)C(C)(C)NC(=O)[C@@H](N)Cc2c[nH]cn2)[C@@H](C)O)[C@@H](C)O)C(=O)NC(CCCc2ccccc2Cl)C(N)=O)cc1 (stereo partly drawn) [Seq. ID. 90] (H-H[Aib]QGT[ξαMePhe(2-F)]TSD[ξBip(2'-Et-4'-OMe)][X2]-NH2)
blood glucose levels ([1]; 10 nM/kg i.p., 0 min): 181 ± 2.5
blood glucose levels ([1]; 10 nM/kg i.p., 30 min): 111 ± 3.4
blood glucose levels ([1]; 10 nM/kg i.p., 60 min): 113 ± 3.1
blood glucose levels ([1]; 10 nM/kg i.p., 120 min): 110 ± 1.8

CCc1cc(OC)ccc1-c1ccc(CC(NC(=O)[C@H](CC(=O)O)NC(=O)[C@H](CO)NC(=O)[C@@H](NC(=O)C(C)(Cc2ccccc2F)NC(=O)[C@@H](NC(=O)CNC(=O)[C@H](CCC(N)=O)NC(=O)C(C)(C)NC(=O)[C@@H](N)Cc2c[nH]cn2)[C@@H](C)O)[C@@H](C)O)C(=O)NC(CCCc2ccc(OC)cc2Cl)C(N)=O)cc1 (stereo partly drawn) [Seq. ID. 92] (H-H[Aib]QGT[ξαMePhe(2-F)]TSD[ξBip(2'-Et-4'-OMe)][X12]-NH2)
blood glucose levels ([1]; 10 nM/kg i.p., 0 min): 180 ± 4.2
blood glucose levels ([1]; 10 nM/kg i.p., 30 min): 113 ± 3.2
blood glucose levels ([1]; 10 nM/kg i.p., 60 min): 112 ± 2.4
blood glucose levels ([1]; 10 nM/kg i.p., 120 min): 110 ± 1.9

CCc1cc(OC)ccc1-c1ccc(CC(NC(=O)[C@H](CC(=O)O)NC(=O)[C@H](CO)NC(=O)[C@@H](NC(=O)C(C)(Cc2ccccc2F)NC(=O)[C@@H](NC(=O)CNC(=O)[C@H](CCC(N)=O)NC(=O)C(C)(C)NC(=O)[C@H](Cc2c[nH]cn2)NC(=O)OC)[C@@H](C)O)[C@@H](C)O)C(=O)NC(CCCc2ccccc2)C(N)=O)cc1 (stereo partly drawn) [Seq. ID. 94] (Moc-H[Aib]QGT[ξαMePhe(2-F)]TSD[ξBip(2'-Et-4'-OMe)][ξhhPhe]-NH2)
blood glucose levels ([1]; 10 nM/kg i.p., 0 min): 182 ± 4.1
blood glucose levels ([1]; 10 nM/kg i.p., 30 min): 112 ± 3.1
blood glucose levels ([1]; 10 nM/kg i.p., 60 min): 113 ± 2.6
blood glucose levels ([1]; 10 nM/kg i.p., 120 min): 111 ± 1.8

Reference: US8883963B2 (Cadila Healthcare Limited, priority 2007, dated 2014)
